According to patent publication US7541478B2, “Coumarin derivative and use thereof” (Takeda Pharmaceutical Company Limited, priority 2004, dated 2009):

Columns and labels:
[1] = Oral absorbability: blood level of Compound X after oral administration to rabbits; type: in vivo; details: male New Zealand white rabbits (n=3), 0.5% methylcellulose suspension, 10 mg/kg in terms of Compound X, blood level of Compound X measured
Procedure: [Method] Male New Zealand white rabbits (n=3) were forced to take Compound A, B or X orally (0.5% suspension in methylcellulose, the dose was 10 mg/kg in terms of Compound X). A blood level of Compound X was measured with time to determine the maximum blood level (Cmax) and time required for reaching the maximum blood level (Tmax). Compound X:(2E)-3-{3-[7-chloro-3-(2-{[4-fluoro-2-(trifluoromethyl)phenyl]amino}-2-oxoethyl)-6-methyl-2-oxo-2H-chromen-4yl]phenyl}acrylic acid described in International Publication WO02/06264.

[2] = molecular target: T1, mouse abdominal macrophage microsome ACAT (Mus musculus, UniProt Q61263); assay: ACAT inhibitory activity (3H-oleyl-CoA, cholesteryl ester formation); type: biochemical; details: microsome from thioglycolate-stimulated C57BL6J mouse macrophage; pre-incubated 37° C. 10 minutes, reaction 37° C. 20 minutes; read-out: IC50 (ACAT inhibiting rate 50%)
T1 construct: then ultracentrifuged (4° C., 50,000 rpm, 90 minutes) to prepare a microsome; from tissue; host or cells: abdominal (peritoneal) macrophages of thioglycolate-stimulated C57BL6J mice, cultured 24 h with rabbit beta-VLDL; microsomal fraction
T1 sequence (Q61263 1-540): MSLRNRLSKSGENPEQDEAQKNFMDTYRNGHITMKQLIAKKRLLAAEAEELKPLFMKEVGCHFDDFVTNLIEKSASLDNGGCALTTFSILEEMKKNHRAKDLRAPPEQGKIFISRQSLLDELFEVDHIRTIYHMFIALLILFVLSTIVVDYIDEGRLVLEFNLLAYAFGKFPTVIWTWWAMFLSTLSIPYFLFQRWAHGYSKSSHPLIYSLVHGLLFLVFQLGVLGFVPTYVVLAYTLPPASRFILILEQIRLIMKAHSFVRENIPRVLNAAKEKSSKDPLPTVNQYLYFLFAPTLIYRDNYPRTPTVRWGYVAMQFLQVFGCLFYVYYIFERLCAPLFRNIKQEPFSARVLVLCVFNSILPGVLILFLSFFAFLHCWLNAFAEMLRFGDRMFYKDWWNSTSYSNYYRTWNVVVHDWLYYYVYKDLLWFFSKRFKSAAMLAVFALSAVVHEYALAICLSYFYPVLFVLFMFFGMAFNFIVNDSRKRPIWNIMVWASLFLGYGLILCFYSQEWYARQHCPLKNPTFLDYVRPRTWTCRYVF
Procedure: According to the method of Hakamada et al. (Experimental Medicine Supplement vol. 14, No. 12, Circulation Research Protocol, p, 49-52, 1996), an abdominal macrophage was taken from a thioglycolate-stimulated C57BL6J mouse and cultured for 24 hours in a RPMI 1640-25 mM HEPES (pH7.0) medium containing rabbit β-very low density lipoprotein (β-VLDL, 150 μg cholesterol/ml) which had been prepared by the method of Ishii et al. (Ishii I et al., Arterioscler, Thromb., 12, 1139-1145, 1992). The abdominal macrophage was then collected by centrifugation (4° C., 1.000 rpm, 5 minutes) and sonicated. The sonicated liquid was centrifuged (4° C., 5000 rpm, 15 minutes) and then ultracentrifuged (4° C., 50,000 rpm, 90 minutes) to prepare a microsome. The microsome thus obtained was used for measuring ACAT inhibitory activity of a test compound as mouse abdominal macrophage microsome ACAT.
A mixture of a test compound, cholesterol-albumin-containing-Tris-HCL buffer (pH 7.5) and mouse abdominal macrophage microsome ACAT was pre-incubated at 37° C. for 10 minutes, and ^3H-oleyl-CoA was added to react at 37° C. for 20 minutes. […] The extract was subjected to silica gel thin chromatography (petroleum ether:diethyl ether:acetic acid=9:1:0.1 v/v), and the resulting ^3H-CE fraction was measured with a scintillation counter. […]

Substance: monocalcium bis((2E)-3-[3-[7-chloro-3-(2-[[4-fluoro-2-(trifluoromethyl)phenyl]amino]-2-oxoethyl)-6-methyl-2-oxo-2H-chromen-4-yl]phenyl]acrylate) trihydrate [Compound A]
- Cmax (maximum blood level of Compound X) [1]: 132 ± 29 ng/mL
- Tmax (time required for reaching the maximum blood level) [1]: 40.2 ± 17.4 min
- IC50 [2]: 1960 nM
